Measurements: US6703506B2, “Amino acid ester containing azole antifungals” (Janssen Pharmaceutica, N.V., priority 1997, dated 2004)

Legend:
[1] = Chemical stability (open glass jar, 40° C., 75% relative humidity); assay type: physicochemical; details: 50 mg, after one week
Protocol: After one week, the amount of test compound remaining was determined.

Candida albicans [2] = assay: Disseminated candidosis in guinea-pigs; assay type: in vivo; details: for CFU/g (liver): culture-positive livers post mortem; for % neg (total percentage culture-negative deep tissues): liver, spleen, kidney, lung and brain
Protocol: (§1) Specific pathogen-free (SPF) guinea-pigs (weighing 400-500 g) were used in all experiments. A catheter was placed into the left jugular vein of the animals that were treated by intravenous infusion, the vein was ligated, and the catheter was connected to a microprocessor-controlled infusion pump. The animals were infected with Aspergillus fumigatus (4,000 CFU/g body weight) or with Candida albicans (40,000 CFU/g body weight) either via the lateral vein of the penis or via the implanted catheter. Intravenous treatments (5 mg/kg/day) began 1 hour after infection. The test formulations were then administered on subsequent days as two, 1 hour infusions daily, separated by a period of 5 hours, for a total of 19 infusions or 9.5 days. Oral treatments with the test compounds (5 mg/kg/day) begun 1 hour after infection and were repeated twice daily up to the tenth day after infection (a total of 19 treatments. For each group of tested animals (number of tested animals per group given in column “N”), the mean survival time (MST) in days was recorded as well as the % survivors (% surv). Animals of each group which died during the experiment and those that survived the experiment and were killed, were investigated for counts of Aspergillus fumigatus and Candida albicans in deep tissue (liver, spleen, kidney, lung and brain) post mortem. The remaining CFU/g in the culture-positive livers was measured and expressed in table 9 (after intravenous treatment) and table 10 (after oral treatment) as mean log10 CFU/g. The columns “%neg” in tables 9 and 10 express the total percentage culture-negative deep tissues after the treatment.

Aspergillus fumigatus [3] = assay: Disseminated aspergillosis in guinea-pigs; assay type: in vivo; details: for CFU/g (liver): culture-positive livers post mortem; for % neg (total percentage culture-negative deep tissues): liver, spleen, kidney, lung and brain
Protocol: as §1

Candida parapsilosis = assay: Determination of fungal susceptibility (MIC); assay type: cell-based; details: CYG medium, 2 days at 37° C., growth to 35% of control or less
Protocol: (§2) A panel of Candida isolates plus single isolates of the dermatophytes Microsporum canis, Trichophyton rubrum and T. mentagrophytes; Aspergillus fumigates, and Cryptococcus neoformans were used to evaluate the activity of the test compounds in vitro. Inocula were prepared as broth cultures (yeasts) or as suspensions of fungal material made from agar slope cultures (moulds). The test compounds were pipetted from DMSO stock solution into water to provide a series of 10-fold dilutions. The fungal inocula were suspended in the growth medium CYG (F. C. Odds, Journal of Clinical Microbiology, 29, (2735-2740, 1991) at approximately 50,000 colony-forming units (CFU) per ml and added to the aqueous test drugs. The cultures were set up in the 96 wells of plastic microdilution plates and they were incubated for 2 days at 37° C. (Candida spp.) or for 5 days at 30° C. (other fungi). Growth in the microcultures was measured by their optical density (OD) measured at a wavelength of 405 nm. The OD for cultures with test compounds was calculated as a percentage of the control, drug-free OD. Inhibition of growth to 35% of control or less was recorded as significant inhibition.
(§3) Minimal inhibitory concentration (MICs; in 10^−6 M) of intermediate 2 as the major metabolite and some of the compounds of formula (I) for Candida glabrata, Candida krusel, Candida parapsilosis, Candida albicans, Candida kefyr, Candida tropicalis, Microsporum canis, Trichophyton rubrum, Trichophyton mentagrophytes, Cryptococcus neoformans, Aspergillus fumigatus are listed in table 8.

Trichophyton rubrum = assay: Determination of fungal susceptibility (MIC); assay type: cell-based; details: CYG medium, 5 days at 30° C., growth to 35% of control or less
Protocol: as §2, §3

Cryptococcus neoformans = assay: Determination of fungal susceptibility (MIC); assay type: cell-based; details: CYG medium, 5 days at 30° C., growth to 35% of control or less
Protocol: as §2, §3

Candida glabrata = assay: Determination of fungal susceptibility (MIC); assay type: cell-based; details: CYG medium, 2 days at 37° C., growth to 35% of control or less
Protocol: as §2, §3

Candida krusei = assay: Determination of fungal susceptibility (MIC); assay type: cell-based; details: CYG medium, 2 days at 37° C., growth to 35% of control or less
Protocol: as §2, §3

Aspergillus fumigatus [4] = assay: Determination of fungal susceptibility (MIC); assay type: cell-based; details: CYG medium, 5 days at 30° C., growth to 35% of control or less
Protocol: as §2, §3

Candida tropicalis = assay: Determination of fungal susceptibility (MIC); assay type: cell-based; details: CYG medium, 2 days at 37° C., growth to 35% of control or less
Protocol: as §2, §3

Candida albicans [5] = assay: Determination of fungal susceptibility (MIC); assay type: cell-based; details: CYG medium, 2 days at 37° C., growth to 35% of control or less
Protocol: as §2, §3

Microsporum canis = assay: Determination of fungal susceptibility (MIC); assay type: cell-based; details: CYG medium, 5 days at 30° C., growth to 35% of control or less
Protocol: as §2, §3

Candida kefyr = assay: Determination of fungal susceptibility (MIC); assay type: cell-based; details: CYG medium, 2 days at 37° C., growth to 35% of control or less
Protocol: as §2, §3

[6] = system: Trichophyton mentagrophytes; assay: Determination of fungal susceptibility (MIC); assay type: cell-based; details: CYG medium, 5 days at 30° C., growth to 35% of control or less
Protocol: as §2, §3

[7] = i.v. treatment 5 mg/kg/day, 19 infusions, 9.5 days
[8] = oral treatment 5 mg/kg/day, twice daily, 19 treatments

CC(C)CC(N)C(=O)OC(C)C(C)n1ncn(-c2ccc(N3CCN(c4ccc(OCC5COC(Cn6cncn6)(c6ccc(F)cc6F)O5)cc4)CC3)cc2)c1=O (stereo not shown) [Compound 21]
Stability (amount of test compound remaining) [1]: 100.3% | CFU/g (liver) (Candida albicans [2]; i.v. treatment 5 mg/kg/day): 2.7 mean log10 CFU/g | CFU/g (liver) (Candida albicans [2]; oral treatment 5 mg/kg/day): 0 mean log10 CFU/g | % surv (% survivors) (Candida albicans [2]; [7]): 16.7% | MST (mean survival time) (Candida albicans [2]; [7]): 6.5 days | % neg (total percentage culture-negative deep tissues) (Candida albicans [2]; i.v. treatment 5 mg/kg/day): 75% | % neg (total percentage culture-negative deep tissues) (Candida albicans [2]; oral treatment 5 mg/kg/day): 83% | % surv (% survivors) (Candida albicans [2]; [8]): 90% | MST (mean survival time) (Candida albicans [2]; [8]): 9.6 days | CFU/g (liver) (Aspergillus fumigatus [3]; i.v. treatment 5 mg/kg/day): 3.7 mean log10 CFU/g | CFU/g (liver) (Aspergillus fumigatus [3]; oral treatment 5 mg/kg/day): 3.0 mean log10 CFU/g | % surv (% survivors) (Aspergillus fumigatus [3]; [7]): 0% | MST (mean survival time) (Aspergillus fumigatus [3]; [7]): 5.7 days | % neg (total percentage culture-negative deep tissues) (Aspergillus fumigatus [3]; i.v. treatment 5 mg/kg/day): 46% | % neg (total percentage culture-negative deep tissues) (Aspergillus fumigatus [3]; oral treatment 5 mg/kg/day): 55% | % surv (% survivors) (Aspergillus fumigatus [3]; [8]): 40% | MST (mean survival time) (Aspergillus fumigatus [3]; [8]): 7.0 days | MIC (Candida parapsilosis): 0.1 10^−6 M | MIC (Trichophyton rubrum): <0.1 10^−6 M | MIC (Cryptococcus neoformans): 1 10^−6 M | MIC (Candida glabrata): 10 10^−6 M | MIC (Candida krusei): 1 10^−6 M | MIC (Aspergillus fumigatus [4]): 1 10^−6 M | MIC (Candida tropicalis): 0.1 10^−6 M | MIC (Candida albicans [5]): 0.1 10^−6 M | MIC (Microsporum canis): 1 10^−6 M | MIC (Candida kefyr): 0.1 10^−6 M | MIC [6]: 1 10^−6 M
